Test results reported in patent US20150297490A1, “COMPOSITIONS, USES AND METHODS FOR TREATING OR PREVENTING DENTAL CARIES” (APOLLONIA HEALTH INC., priority 2012, published 2015).
“And” between values parts separate entries of the source, which are not always exact repeats. Equal values may be shown once.

System: S. mutans UA159
Assay: pH of culture medium of S. mutans biofilms after 1 minute incubation with test treatments
Type: cell-based, Streptococcus mutans
Conditions: for pH of the medium, Average: average of samples; for pH of the medium: individual samples 1-4; for drop in pH of the medium (initial pH minus pH at 6 or 8 hours): 6 and 8 hours after treatment, FIGS. 2 and 3; for statistical significance of pH results compared to the water control: p<0.05
Source text: Amongst acidogenic bacteria, S. mutans is the principal etiological agent of caries in humans. Since there is a strong correlation between the proportion of S. mutans in dental plaque or in saliva relative to other bacterial species and the presence or risk of future outbreaks of dental caries, S. mutans in plaque or saliva may serve as an index for both dental caries activity state and dental caries risk or susceptibility. S. mutans UA159 strain was used in this Example.
On the first day, biofilm growth was initiated by inoculating 10 mL of 100% Todd-Hewitt broth (THYE) with 0.3% yeast extract at a pH of 7.0 with UA159 to prepare overnight cultures. The samples were incubated in closed screw-cap tubes without agitation at 37° C. in an anaerobic chamber (5% CO2).
On the second day, 1:100 dilutions were prepared by mixing 20 pl of the overnight UA159 cultures with ¼ THYE with 0.075% yeast extract supplemented with 0.1% sucrose to reach a final volume of 2 mL. The dilutions were then placed into the wells of 12-well plates.
On the third day, the 2 mL of medium was removed from each well. 1.0 mL of test treatment solution, as described below, was added to each well, after which the wells were incubated for 1 minute on the bench at room temperature. Next, the test treatment solutions were removed, and 3.0 mL of undiluted THYE with 0.3% yeast extract and no sucrose was added to each well.
If an internal pH control was required, fresh THYE was also added to two un-inoculated wells. During these steps, care was taken to avoid disrupting the biofilm.
Immediately after 100% THYE with 0.3% yeast extract was added to the wells following incubation with the test treatments, the initial pH of the medium in each well was measured. Samples were incubated at 37° C. in an open air, bench-top incubator, and the pH of the medium was measured once an hour for the next 7-8 hours. Finally, the pH of the medium in each well was measured again the next morning.

Row | SMILES | pH of the medium, Average (0 hours after treatment) | pH of the medium (0 hours after treatment) | drop in pH of the medium (initial pH minus pH at 6 or 8 hours) | pH of the medium, Average (1 hour after treatment) | pH of the medium (1 hour after treatment) | pH of the medium, Average (2 hours after treatment) | pH of the medium (2 hours after treatment) | pH of the medium, Average (3 hours after treatment) | pH of the medium (3 hours after treatment) | pH of the medium, Average (4 hours after treatment) | pH of the medium (4 hours after treatment) | pH of the medium, Average (5 hours after treatment) | pH of the medium (5 hours after treatment) | pH of the medium, Average (6 hours after treatment) | pH of the medium (6 hours after treatment) | pH of the medium, Average (7 hours after treatment) | pH of the medium (7 hours after treatment) | pH of the medium, Average (8 hours after treatment) | pH of the medium (8 hours after treatment) | statistical significance of pH results compared to the water control | further results
1 | O=C([O-])O.[Na+] [Sodium Bicarbonate, Sodium bicarbonate] | 7.51 | 7.48 and 7.39 and 7.58 and 7.59 | little to no effect on the drop in pH | 7.07 | 7.09 and 6.97 and 7.1 and 7.12 | 6.84 | 6.67 and 6.81 and 6.93 and 6.96 | 6.52 | 5.85 and 6.6 and 6.82 and 6.81 | 6.08 | 5.08 and 6.21 and 6.49 and 6.53 | 5.69 | 5.03 and 5.7 and 5.97 and 6.06 | 5.22 | 5 and 5.11 and 5.33 and 5.42 | 5.01 | 5 and 4.96 and 5.01 and 5.06 | 5.00 | 5.06 and 4.96 and 4.97 | statistically significant difference at 1 hour | 
2 | O.O.O=C([O-])CC(O)(CC(=O)[O-])C(=O)[O-].[Na+].[Na+].[Na+] [Sodium Citrate, Sodium citrate dihydrate] | 7.50 |  | little to no effect on the drop in pH | 7.05 |  | 6.83 |  | 6.50 |  | 6.00 |  | 5.64 |  | 5.22 |  | 5.00 |  | 4.97 |  | no statistically significant difference at any time | pH of the medium (0 hours after treatment, citrate dihydrate): 7.5 and 7.35 and 7.57 and 7.58; pH of the medium (1 hour after treatment, citrate dihydrate): 7.05 and 6.93 and 7.09 and 7.12; pH of the medium (2 hours after treatment, citrate dihydrate): 6.69 and 6.75 and 6.91 and 6.95; pH of the medium (3 hours after treatment, citrate dihydrate): 6.01 and 6.47 and 6.76 and 6.77; pH of the medium (4 hours after treatment, citrate dihydrate): 5.14 and 5.94 and 6.44 and 6.48; pH of the medium (5 hours after treatment, citrate dihydrate): 5.02 and 5.49 and 5.96 and 6.07; pH of the medium (6 hours after treatment, citrate dihydrate): 4.98 and 5.06 and 5.36 and 5.46; pH of the medium (7 hours after treatment, citrate dihydrate): 4.97 and 4.92 and 5.04 and 5.07; pH of the medium (8 hours after treatment, citrate dihydrate): 4.99 and 4.95 and 4.96
3 | OC[C@@H](O)[C@H](O)[C@@H](O)CO [Xylitol] | 7.50 | 7.49 and 7.36 and 7.58 and 7.57 | able to slow the pH drop | 7.08 | 7.08 and 7 and 7.12 (2×) | 6.87 | 6.72 and 6.82 and 6.97 (2×) | 6.58 | 6.19 and 6.57 and 6.77 and 6.8 | 6.27 | 5.77 and 6.17 and 6.55 and 6.57 | 6.00 | 5.51 and 5.93 and 6.25 and 6.29 | 5.72 | 5.23 and 5.55 and 6.05 and 6.06 | 5.52 | 5.1 and 5.37 and 5.78 and 5.82 | 5.45 | 5.09 and 5.58 and 5.68 | statistically significant difference at 1, 6, 7, and 8 hours | 
